Measured values as given in patent US9974778B2, “Substituted pyridinones as MGAT2 inhibitors” (BRISTOL-MYERS SQUIBB COMPANY, priority 2014, dated 2018).
pIC50: −log10 of the molar value.

What follows are molecules tested against T1, Human MGAT-2 (Homo sapiens, UniProt Q3SYC2) (assay: MGAT LCMS Assay). Conditions: human MGAT2 membranes expressed in Sf9 cells; 100 μM 2-oleoylglycerol, 15 μM oleoyl-coenzyme A; read-out: h-MGAT LCMS IC50.
T1 construct: made in house; host or cells: Sf9 cells (membrane preparation)
Format: biochemical
In short: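 Robotic enzyme reaction shaken 10 min, quenched with ice-cold methanol containing 1 μg/mL 1,2-distearoyl-rac-glycerol internal standard. Diolein product measured by LC/MS (C8 column, 65° C, APCI(+) triple quad). IC50 derived from diolein/internal standard peak area ratio.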

T1 sequence (Q3SYC2 whole entry): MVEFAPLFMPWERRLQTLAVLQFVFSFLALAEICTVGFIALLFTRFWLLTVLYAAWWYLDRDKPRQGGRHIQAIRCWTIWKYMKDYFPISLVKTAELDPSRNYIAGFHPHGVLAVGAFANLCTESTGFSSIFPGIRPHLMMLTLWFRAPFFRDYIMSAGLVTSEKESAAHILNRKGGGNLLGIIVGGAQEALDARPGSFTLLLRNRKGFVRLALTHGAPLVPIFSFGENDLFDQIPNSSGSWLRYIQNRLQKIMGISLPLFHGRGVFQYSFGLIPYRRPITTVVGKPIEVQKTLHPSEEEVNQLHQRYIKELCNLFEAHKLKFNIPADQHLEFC

SMILES | pIC50
O=C(Nc1ccc(OC(F)(F)F)cc1)c1c(-c2ccn(CC3CC3)n2)cc(-c2ccc(OCCCCCC(F)(F)F)cc2F)[nH]c1=O [Example 118, 4-(1-(Cyclopropylmethyl)-1H-pyrazol-3-yl)-6-(2-fluoro-4-((6,6,6-trifluorohexyl)oxy)phenyl)-2-oxo-N-(4-(trifluoromethoxy)phenyl)-1,2-dihydropyridine-3-carboxamide] | 7.72
CCOc1ccc(NC(=O)c2c(-c3ccn(CC)n3)cc(-c3ccc(OCCCC(F)(F)F)cc3F)[nH]c2=O)cc1 [Example 119, N-(4-Ethoxyphenyl)-4-(1-ethyl-1H-pyrazol-3-yl)-6-(2-fluoro-4-(4,4,4-trifluorobutoxy)phenyl)-2-oxo-1,2-dihydropyridine-3-carboxamide] | 8.00
CCn1ccc(-c2cc(-c3ccc(OCCCC(F)(F)F)cc3F)[nH]c(=O)c2C(=O)Nc2ccc(OC(F)(F)F)cc2)n1 [Example 120, 4-(1-Ethyl-1H-pyrazol-3-yl)-6-(2-fluoro-4-(4,4,4-trifluorobutoxy)phenyl)-2-oxo-N-(4-(trifluoromethoxy)phenyl)-1,2-dihydropyridine-3-carboxamide] | 7.35
CCc1ccc(-c2cc(-c3ccc(OCCCC(F)(F)F)cc3)[nH]c(=O)c2C(=O)NS(=O)(=O)C2CC2)s1 [Example 121] | 7.96
Cc1ccc(-c2cc(-c3ccc(OCCCC(F)(F)F)cc3F)[nH]c(=O)c2C(=O)Nc2ccc(OC(F)(F)F)cc2)cc1 [Example 122, 6-(2-Fluoro-4-(4,4,4-trifluorobutoxy)phenyl)-2-oxo-4-(p-tolyl)-N-(4-(trifluorormethoxy)phenyl)-1,2-dihydropyridine-3-carboxamide] | 7.57
O=c1[nH]c(-c2ccc(OCCCCCC(F)(F)F)cc2F)cc(-c2ccc(C3CC3)cc2)c1-c1nnn[nH]1 [Example 123, 4-(4-Cyclopropylphenyl)-6-(2-fluoro-4-((6,6,6-trifluorohexyl)oxy)phenyl)-3-(1H-tetrazol-5-yl)pyridin-2(1H)-one] | 7.96
CCOc1cc(OCCCCCC(F)(F)F)ccc1-c1cc(-c2ccc(C3CC3)cc2)c(-c2nnn[nH]2)c(=O)[nH]1 [Example 124, 4-(4-Cyclopropylphenyl)-6-(2-ethoxy-4-((6,6,6-trifIuorohexyl)oxy)phenyl)-3-(1H-tetrazol-5-yl)pyridin-2(1H)-one] | 6.89
O=c1[nH]c(-c2ccc(OCCCC(F)(F)F)cc2F)cc(-c2ncc(C3CC3)s2)c1-c1nnn[nH]1 [Example 125, 4-(5-Cyclopropylthiazol-2-yl)-6-(2-fluoro-4-(4,4,4-trifluorobutoxy)phenyl)-3-(1H-tetrazol-5-yl)pyridin-2(1H)-one] | 8.70
CCOc1cc(OCCCC(F)(F)F)ccc1-c1cc(-c2ccc(C)cc2)c(C(=O)NS(=O)(=O)C2CC2)c(=O)[nH]1 [Example 126, N-(Cyclopropylsulfonyl)-6-(2-ethoxy-4-(4,4,4-trifluorobutoxy)phenyl)-2-oxo-4-(p-tolyl)-1,2-dihydropyridine-3-carboxamide] | 7.37
CCc1ccc(-c2c(Cl)c(-c3ccc(OCCCC(F)(F)F)cc3)[nH]c(=O)c2-c2nnn[nH]2)s1 [Example 128, 5-Chloro-4-(5-ethylthiophen-2-yl)-3-(1H-tetrazol-5-yl)-6-(4-(4,4,4-trifluorobutoxy)phenyl)pyridin-2(1H)-one] | 7.08
CCn1ccc(-c2cc(-c3ccc(OCCCC(F)(F)F)cc3C(F)(F)F)[nH]c(=O)c2-c2nn[nH]n2)n1 [Example 129, 4-(1-Ethyl-1H-pyrazol-3-yl)-3-(2H-tetrazol-5-yl)-6-(4-(4,4,4-trifluorobutoxy)-2-(trifluoromethyl)phenyl)pyridin-2(1H)-one] | 7.29
O=c1[nH]c(-c2ccc(OCCCCCC(F)(F)F)cc2F)cc(-c2ccc(C(F)F)cc2)c1-c1nnn[nH]1 [Example 130, 4-(4-(Difluoromethyl)phenyl)-6-(2-fluoro-4-((6,6,6-trifluorohexyl)oxy)phenyl)-3-(1H-tetrazol-5-yl)pyridin-2(1H)-one] | 8.40
Cc1ccc(-c2cc(-c3ccc(OCCCCCC(F)(F)F)cc3Cl)[nH]c(=O)c2C(=O)Nc2ccc(OC(F)(F)F)cc2)cc1 [Example 131, 6-(2-Chloro-4-((6,6,6-trifluorohexyl)oxy)phenyl)-2-oxo-4-(p-tolyl)-Ar-(4-(trifluoromethoxy)phenyl)-1,2-dihydropyridine-3-carboxamide] | 8.15
Cc1ccc(-c2cc(-c3ccc(OCCCC(F)(F)F)cc3Cl)[nH]c(=O)c2C(=O)Nc2ccc(OC(F)(F)F)cc2)cc1 [Example 132, 6-(2-Chloro-4-(4,4,4-trifluorobutoxy)phenyl)-2-oxo-4-(p-tolyl)-N-(4-(trifluoromethoxy)phenyl)-1,2-dihydropyridine-carboxamide] | 7.85
CCc1cnc(-c2cc(-c3ccc(OCCCC(F)(F)F)cc3F)[nH]c(=O)c2-c2nnn[nH]2)s1 [Example 133, 4-(5-Ethylthiazol-2-yl)-6-(2-fluoro-4-(4,4,4-trifluorobutoxy)phenyl)-3-(1H-tetrazol-5-yl)pyridin-2(1H)-one] | 8.70
Cc1ccc(-c2cc(-c3ccc(OCCCCCC(F)(F)F)cc3C(F)(F)F)[nH]c(=O)c2-c2nnn[nH]2)cc1 [Example 134, 3-(2H-Tetrazol-5-yl)-4-(p-tolyl)-6-(4-((6,6,6-trifluorohexyl)oxy)-2-(trifluoromethyl)phenyl)pyridin-2(1H)-one] | 8.52
CCc1ccc(-c2cc(-c3ccc(OCCCC(F)(F)F)cc3F)[nH]c(=O)c2C(=O)NS(C)(=O)=O)s1 [Example 135, 4-(5-Ethylthiophen-2-yl)-6-(2-fluoro-4-(4,4,4-trifluorobutoxy)phenyl)-N-(methylsulfonyl)-2-oxo-1,2-dihydropyridine-3-carboxamide] | 8.30
CCOc1cc(OCCCC(F)(F)F)ccc1-c1cc(-c2ncc(C3CC3)s2)c(-c2nnn[nH]2)c(=O)[nH]1 [Example 137, 4-(5-Cyclopropylthiazol-2-yl)-6-(2-ethoxy-4-(4,4,4-trifluorobutoxy)phenyl)-3-(1H-tetrazol-5-yl)pyridin-2(1H)-one] | 8.30
O=C(NS(=O)(=O)C1CC1)c1c(-c2ncc(C3CC3)s2)cc(-c2ccc(OCCCC(F)(F)F)cc2F)[nH]c1=O [Example 138, N-(Cyclopropylsulfonyl)-4-(5-cyclopropylthiazol-2-yl)-6-(2-fluoro-4-(4,4,4-trifluorobutoxy)phenyl)-2-oxo-1,2-dihydropyridine-3-carboxamide] | 7.89
CCc1ccc(-c2cc(-c3ccc(OCCCC(F)(F)F)cc3Cl)[nH]c(=O)c2-c2nnn[nH]2)s1 [Example 139, 6-(2-Chloro-4-(4,4,4-trifluorobutoxy)phenyl)-4-(5-ethylthiophen-2-yl)-3-(1H-tetrazol-5-yl)pyridin-2(1H)-one] | 8.40
CCc1ccc(-c2cc(-c3ccc(OCCCC(F)(F)F)cc3Cl)[nH]c(=O)c2C(=O)NS(C)(=O)=O)s1 [Example 140, 6-(2-Chloro-4-(4,4,4-trifluorobutoxy)phenyl)-4-(5-ethylthiophen-2-yl)-N-(methylsulfonyl)-2-oxo-1,2-dihydropyridine-3-carboxamide] | 7.52
CS(=O)(=O)NC(=O)c1c(-c2ncc(C3CC3)s2)cc(-c2ccc(OCCCC(F)(F)F)cc2F)[nH]c1=O [Example 141, 4-(5-Cyclopropylthiazol-2-yl)-6-(2-fluoro-4-(4,4,4-trifluorobutoxy)phenyl)-N-(methylsulfonyl)-2-oxo-1,2-dihydropyridine-3-carboxamide] | 8.15
CCc1ccc(-c2cc(-c3ccc(/C=C/C4CC4)cc3)[nH]c(=O)c2-c2nn[nH]n2)s1 [Example 142, (E)-6-(4-(2-Cyclopropylvinyl)phenyl)-4-(5-ethylthiophen-2-yl)-3-(2H-tetrazol-5-yl)pyridin-2(1H)-one] | 8.40
CCOc1cc(OCCCC(F)(F)F)ccc1-c1cc(-c2ncc(C3CC3)s2)c(C(=O)NS(C)(=O)=O)c(=O)[nH]1 [Example 143, 4-(5-Cyclopropylthiazol-2-yl)-6-(2-ethoxy-4-(4,4,4-trifluorobutoxy)phenyl)-N-(methylsulfonyl)-2-oxo-1,2-dihydropyridine-3-carboxamide] | 7.28
CCc1ccc(-c2cc(-c3ccc(C4=CCC(C)(C)CC4)cc3)[nH]c(=O)c2-c2nn[nH]n2)s1 [Example 144, 6-(4′,4′-Dimethyl-2′,3′,4′,5′-tetrahydro-[1,1′-biphenyl]-4-yl)-4-(5-ethylthiophen-2-yl)-3-(2H-tetrazol-5-yl)pyridin-2(1H)-one] | 7.62
CCc1ccc(-c2cc(-c3ccc(CCC4CC4)cc3)[nH]c(=O)c2-c2nn[nH]n2)s1 [Example 145, 6-(4-(2-Cyclopropylethyl)phenyl)-4-(5-ethylthiophen-2-yl)-3-(2H-tetrazol-5-yl)pyridin-2(1H)-one] | 8.00
CCc1cnc(-c2cc(-c3ccc(OCCCC(F)(F)F)cc3F)[nH]c(=O)c2C(=O)NS(C)(=O)=O)s1 [Example 146, 4-(5-Ethylthiazol-2-yl)-6-(2-fluoro-4-(4,4,4-trifluorobutoxy)phenyl)-N-(methylsulfonyl)-2-oxo-1,2-dihydropyridine-3-carboxamide] | 7.54
CCc1cnc(-c2cc(-c3ccc(/C=C/C4CC4)cc3)[nH]c(=O)c2-c2nn[nH]n2)s1 [Example 147, (E)-6-(4-(2-Cyclopropylvinyl)phenyl)-4-(5-ethylthiazol-2-yl)-3-(2H-tetrazol-5-yl)pyridin-2(1H)-one] | 8.15
CCc1cnc(-c2cc(-c3ccc(OCCCCCC(F)(F)F)cc3F)[nH]c(=O)c2-c2nnn[nH]2)s1 [Example 148, 4-(5-Ethylthiazol-2-yl)-6-(2-fluoro-4-((6,6,6-trifluorohexyl)oxy)phenyl)-3-(1H-tetrazol-5-yl)pyridin-2(1H)-one] | 9.10
CCc1cnc(-c2cc(-c3ccc(CCC4CC4)cc3)[nH]c(=O)c2-c2nn[nH]n2)s1 [Example 149, 6-(4-(2-Cyclopropylethyl)phenyl)-4-(5-ethylthiazol-2-yl)-3-(2H-tetrazol-5-yl)pyridin-2(1H)-one] | 7.28
